The values that follow come from patent US8604198B2, “Salt of proline derivative, solvate thereof, and production method thereof” (Mitsubishi Tanabe Pharma Corporation, priority 2005, dated 2013).

What all share (assay type): physicochemical
A short description of data set [1]: Measurement of hygroscopicity (moisture adsorption measurement). Conditions: 25° C., reduced pressure type moisture adsorption measurement apparatus. The method, then: The hygroscopicity of the title compound of Example 3 was measured under the following conditions using a moisture adsorption measurement apparatus. • apparatus: MB-300G manufactured by VTI • measurement temperature: 25° C. • measurement range: 0-95% RH
The title compound of Example 3 was subjected to a moisture adsorption measurement using a reduced pressure type moisture adsorption measurement apparatus.

Data set [2] in a line: Measurement of solubility in water (visual observation). To be noted: 37° C., shaken 1 hr. As for the experimental part:
As a measurement method, visual observation was used, which permits convenient evaluation of rough solubility with a small amount of sample. The temperature during measurement was 37° C. About 3 mg of the title compound of Example 3 was taken in a sample bottle with a screw cap, a test solution (0.15 mL) was added and the cap was screwed tightly thereon. The sample was ultrasonicated for 1 min to give a dispersion, which was placed in a shaking-type thermostat water bath stabilized at 37° C. and shaken for 1 hr. Then, dissolution was confirmed by visual observation.

The nature of data set [3]: Measurement of solubility at pH 9-13 (HPLC). As for the experimental part: Using 0.2 mol/L NaOH/0.1 mol/L NaCl mixed solution as a test solution, the solubility of the title compound of Example 3 having a pH of 9-13 at room temperature was analyzed by liquid chromatography (HPLC) (n=3). […] From the foregoing, the solubility of the title compound of Example 3 was concluded to be about 7 mg/mL.

Regarding `Br.Br.Br.Br.Br.Cc1cc(N2CCN([C@@H]3CN[C@H](C(=O)N4CCSC4)C3)CC2)n(-c2ccccc2)n1.Cc1cc(N2CCN([C@@H]3CN[C@H](C(=O)N4CCSC4)C3)CC2)n(-c2ccccc2)n1` [Example 3, 3-{(2S,4S)-4-[4-(3-methyl-1-phenyl-1H-pyrazol-5-yl)piperazin-1-yl]pyrrolidin-2-ylcarbonyl}thiazolidine 2.5 hydrobromide], the “state of water content” value in data set [1] (0% RH) is recorded as “almost completely dry”. Besides, the “water maintained, corresponding to hydrate” value in data set [1] (50% RH) amounted to 1.8 hydrate. The solubility in water result in data set [2] is recorded as “not less than 20 mg/mL”. Also, the Solubility – broadly, the concentration that dissolves in the medium under given conditions – turned out to be 8400 µg/mL in data set [3] (pH 8.81, 25° C.); 7200 µg/mL in data set [3] (pH 11.94, 25° C.); 7900 µg/mL in data set [3] (pH 11.98, 25° C.); 7200 µg/mL in data set [3] (pH 12.10, 25° C.); 7800 µg/mL in data set [3] (pH 12.26, 25° C.); 6400 µg/mL in data set [3] (pH 12.70, 25° C.). Also, the “Solubility” value in data set [3] (pH 12.99, 25° C.) came out at 6800 µg/mL. Moreover, in data set [3] (pH 9-13, room temperature, conclusion from the measured range), the “solubility (concluded)” value is reported as “about 7 mg/mL”.
